One compound from patent US20250017888A1, “COMPOUNDS FOR TREATING DISEASES ASSOCIATED WITH HYALURONAN OVERPRODUCTION” (THE ROYAL VETERINARY COLLEGE, priority 2021, published 2025) can be followed below.

Common to all, as to assay type: cell-based
Data set [1] in a line: Alamar blue toxicity assay (FIG. 1). The settings on record: below concentrations of 100 μM. The protocol:
(§1) The hyaluronan synthase activity (Prehm, P. and Schumacher, U., Biochem. Pharmacol. 2004, 68, 1401-1410), the cytotoxicity of the drugs (O'Brien, J. et al., Eur. J. Biochem. 2000, 267, 5421-5426), proteoglycan synthesis rate, hyaluronan (Prehm, P. J. Rheumatol., 2005, 32, 690-696) and proteoglycan (Bjornsson, S. Anal. Biochem. 1993, 210, 282-291) were determined as described. The effect of the prenylflavonoids on the MRP5 export rate was measured with fluorescein diacetate as described (Schulz, T., Schumacher, U., and Prehm, P., J Biol. Chem., 2007, 282, 20999-21004). The determination of the IC50 values on the phosphodiesterase 5 was performed according to the instructions of BPS Bioscience. The culture of bovine chondrocytes in alginate beads and of explants of bovine cartilage was described previously (Deiters, B. and Prehm, P. Arthritis Res. Ther., 2008, 10, R8; Prehm, P. J. Rheumatol. 2005, 32, 690-696). Osteoarthritic reactions were induced in chondrocytes growing in alginate beads by incubation with medium containing 10 ng/ml of II-17 for 6 days, and in cartilage explants with 10 ng/ml of II-17 and 5 ng/ml of II-1α. The supernatants were withdrawn and stored at −20° C. for later analysis. The explants were weighed and extracted with 1 ml of 4 M guanidinium-HCl for 72 hours at 4° C. The proteoglycan concentrations were determined in the extracts.
The toxicity was determined by the Alamar blue assay.

A further data set has as its system chondrosarcoma cells. As to the kind of experiment: Uptake of flavonoids into chondrosarcoma cells by intracellular fluorescence. The protocol:
Confluent monolayers of chondrosarcoma cells on 96 well microtiter plates were incubated with 100 μM solutions of flavonoids in serum-free Quantum medium. Changes in fluorescence were monitored from the bottom of the wells at excitation and emission wavelengths of 340 nm and 450 nm for xanthohumol and at 440 nm and 530 nm for quercetin, respectively.
Flavonoids are weakly fluorescent in aqueous buffer, but greatly enhance the fluorescence in the presence of proteins (Sengupta, B. and Sengupta, P. K., Biochem. Biophys. Res. Commun., 2002, 299, 400-403). This property was used to follow the uptake of quercetin and xanthohumol into chondrosarcoma cells.

A further data set concerns fibroblasts. Briefly: Alamar blue staining of fibroblasts. The settings on record: Fibroblast. As for the experimental part: as §1
The subject of another data set is bovine cartilage slices. Briefly: Collagen loss from cartilage explants (van Gieson staining). The settings on record: Il-1α, Il-1β and Il-17; 12.5 μM and 50 μM; 14 days. The protocol: Cartilage explants were incubated with and without a mixture of 10 ng/ml of II-1α, 10 ng/ml of II-1β and 25 ng/ml of II-17 for 14 days. The addition of the cytokines was repeated daily. The tissues were fixed with 3.7% paraformaldehyde for 24 hours, imbedded in paraffin and stained by the van Giesson method.
Cartilage explants were incubated with and without a mixture of 10 ng/ml of 11-17 and 5 ng/ml of II-1α for 14 days. The addition of the cytokines was repeated daily. The tissues were fixed with 3.7% paraformaldehyde for 24 hours, imbedded in paraffin and stained by the van Gieson method (van Gieson, 1. (1889) Laboratory notes of technical methods for the nervous system. New York Medical Journal 50, 57-60).
It is known that hyaluronan overproduction leads to collagen degradation from cartilage (Deiters, B. and Prehm, P., Arthritis Res. Ther., 2008, 10, R8; Prehm, P., J. Rheumatol., 2005, 32, 690-696). […] Therefore cartilage explants were incubated with a mixture of the osteoarthritis inducing […] II-1α, II-1β and II-17 with 12.5 μM and 50 μM of the prenylflavonoids for 14 days and collagen was stained by the van Giesson method.

Data set [2] relates to bovine cartilage explants. As to the kind of experiment: Proteoglycan loss from interleukin activated bovine cartilage explants. The following applies: Bos taurus; read-out: IC50 Inhibition of proteoglycan loss. The protocol: Cartilage explants were weighed (average wet weight: 20 mg) incubated in the absence and presence of IL-1 (2 ng/ml) and the inhibitors at various concentrations for 5 days. The tissues were extracted with 1.5 ml of a solution of 4 M guanidinium hydrochloride, 0.1 M ε-aminohexanoid acid, 5 mM benzamidine, 10 mM N-ethylmaleinimide, 0.5 mM phenylmethylsulfonyl fluoride for 3 days at 4° C. The solution was centrifuged for 5 min at 10.000 g and the proteoglycans were determined in the supernatant by the alcian blue method as described (Bjornsson, S., Anal. Biochem., 1993, 210, 282-291).
Bovine cartilage explants were incubated in the absence and presence of interleukin for stimulation of osteoarthritic reactions and the indicated concentrations of the xanthohumol-betaine (FIG. 6A), xanthohumol-prothiazole (FIG. 6B), quercetin-prothiazole (FIG. 6C), quercetin (FIG. 6D) and xanthohumol (FIG. 6E) for 5 days. The cartilage explants were weighed and the proteoglycan concentrations were determined in the cartilage explants (solid bars) and culture supernatants (open bars).

The test system of data set [3] is chondrosarcoma cells (SW1353). Briefly: Alamar blue staining of chondrosarcoma. The following applies: Homo sapiens. As for the experimental part: as §1
Chondrosarcoma cells (SW1353 from the American Type Culture Collection) were grown in Dulbecco's medium supplemented with streptomycin/penicillin (100 units of each/ml), 10% foetal calf serum or in serum free Quantum medium supplemented with streptomycin/penicillin (100 units of each/ml), kanamycin (100 units/ml).

Data set [4] has as its system hyaluronan export from chondrosarcoma cells. As to the kind of experiment: Inhibition of hyaluronan export / production in chondrosarcoma cells. As for the experimental part: as §1
Chondrosarcoma cells were plated on a 96 well microtiter plate and in the presence of increasing flavonoid concentrations. After 2 days the concentration of hyaluronan was determined in the culture supernatant.

For the compound `COc1cc(O)c(CC=C(C)C)c(O)c1C(=O)/C=C/c1ccc(O)cc1` [Xanthohumol, reference compound], in data set [1], the “toxicity in Alamar blue assay” value is listed as “not toxic”. Further, the “uptake into chondrosarcoma cells (intracellular fluorescence)” value with chondrosarcoma cells is “did not accumulate inside the cells”. In addition, the IC50 came out at 55 µM in the data set on fibroblasts, 2.6 µM in data set [2], 76 µM in data set [3] and 19 µM in data set [4]. Further, the “protection of cartilage from collagen loss” value in the data set with bovine cartilage slices is “effective at protecting the cartilage from collagen loss”.
